Laboratory results taken from the supplement of paper PMC10307832.

Experiments:
Experiment in all cases: relative viability (nuclei count vs DMSO), 5 days (fraction); higher = more cells survive
Tosedostat + Navitoclax = compound: CC(C)C[C@@H](C(=O)N[C@H](C(=O)OC1CCCC1)c1ccccc1)[C@H](O)C(=O)NO [Tosedostat] + CC1(C)CCC(c2ccc(Cl)cc2)=C(CN2CCN(c3ccc(C(=O)NS(=O)(=O)c4ccc(N[C@H](CCN5CCOCC5)CSc5ccccc5)c(S(=O)(=O)C(F)(F)F)c4)cc3)CC2)C1 [Navitoclax] (partner 0.5 µM)
Method in brief: (§1)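 Values are medians from duplicate plates. Each reflects relative viability, defined as the nuclei count of treated wells over that of vehicle wells. Lung cancer cell lines in 1536-well plates were pin-tool dosed one day after seeding with one drug alone or with a fixed anchor-drug dose plus five library-drug doses (not always all listed) in √10 steps, then fixed, stained and imaged at 4× after 5 days.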

Tosedostat + OSI-027 = compound: CC(C)C[C@@H](C(=O)N[C@H](C(=O)OC1CCCC1)c1ccccc1)[C@H](O)C(=O)NO [Tosedostat] + COc1cccc2cc(-c3nc([C@H]4CC[C@H](C(=O)O)CC4)n4ncnc(N)c34)[nH]c12 [OSI-027] (partner 0.5 µM)
Method in brief: as §1

[1] = compound: CC1=NN=C(O1)C2=NN=C(C=C2)N3CCC(CC3)OC4=C(C=CC(=C4)F)Cl + CC1(C)CCC(c2ccc(Cl)cc2)=C(CN2CCN(c3ccc(C(=O)NS(=O)(=O)c4ccc(N[C@H](CCN5CCOCC5)CSc5ccccc5)c(S(=O)(=O)C(F)(F)F)c4)cc3)CC2)C1 [Navitoclax] (partner 0.5 µM)
Method in brief: as §1

[2] = compound: CC1=NN=C(O1)C2=NN=C(C=C2)N3CCC(CC3)OC4=C(C=CC(=C4)F)Cl + CS(=O)(=O)CCNCc1ccc(-c2ccc3ncnc(Nc4ccc(OCc5cccc(F)c5)c(Cl)c4)c3c2)o1 [Lapatinib] (partner 2 µM)
Method in brief: as §1

## UMC-11
Tosedostat + Navitoclax; first compound 0.02 µM
  relative viability: 0.343
Tosedostat + Navitoclax; first compound 0.06325 µM
  relative viability: 0.309
Tosedostat + Navitoclax; first compound 0.2 µM
  relative viability: 0.323
Tosedostat + Navitoclax; first compound 0.6325 µM
  relative viability: 0.322
Tosedostat + Navitoclax; first compound 2 µM
  relative viability: 0.287
Tosedostat + OSI-027; first compound 0.02 µM
  relative viability: 0.473
Tosedostat + OSI-027; first compound 0.06325 µM
  relative viability: 0.464
Tosedostat + OSI-027; first compound 0.2 µM
  relative viability: 0.397
Tosedostat + OSI-027; first compound 0.6325 µM
  relative viability: 0.449
Tosedostat + OSI-027; first compound 2 µM
  relative viability: 0.473
[1]; first compound 0.253 µM
  relative viability: 0.287
[1]; first compound 0.8 µM
  relative viability: 0.344
[1]; first compound 2.53 µM
  relative viability: 0.315
[1]; first compound 8 µM
  relative viability: 0.317
[2]; first compound 0.253 µM
  relative viability: 0.641
[2]; first compound 0.8 µM
  relative viability: 0.645
[2]; first compound 2.53 µM
  relative viability: 0.777
[2]; first compound 8 µM
  relative viability: 0.595
